Publication PMC4783990, “Cloning and Characterization of a Flavonoid 3′-Hydroxylase Gene from Tea Plant (Camellia sinensis)” (International Journal of Molecular Sciences, 2016)
Like-named read-outs stand apart in the source and are kept apart here. Blank lines part the entries; values can stand above or below the molecule they belong to.

Biological target: T1, CsF3′H (Camellia sinensis, UniProt A0A0S2LLA9)
T1 construct: microsomes of Saccharomyces cerevisiae WAT11, which co-expresses an Arabidopsis thaliana P450 reductase; ORF amplified with its own stop codon, no tag stated
T1 sequence (A0A0S2LLA9 entry or part of it): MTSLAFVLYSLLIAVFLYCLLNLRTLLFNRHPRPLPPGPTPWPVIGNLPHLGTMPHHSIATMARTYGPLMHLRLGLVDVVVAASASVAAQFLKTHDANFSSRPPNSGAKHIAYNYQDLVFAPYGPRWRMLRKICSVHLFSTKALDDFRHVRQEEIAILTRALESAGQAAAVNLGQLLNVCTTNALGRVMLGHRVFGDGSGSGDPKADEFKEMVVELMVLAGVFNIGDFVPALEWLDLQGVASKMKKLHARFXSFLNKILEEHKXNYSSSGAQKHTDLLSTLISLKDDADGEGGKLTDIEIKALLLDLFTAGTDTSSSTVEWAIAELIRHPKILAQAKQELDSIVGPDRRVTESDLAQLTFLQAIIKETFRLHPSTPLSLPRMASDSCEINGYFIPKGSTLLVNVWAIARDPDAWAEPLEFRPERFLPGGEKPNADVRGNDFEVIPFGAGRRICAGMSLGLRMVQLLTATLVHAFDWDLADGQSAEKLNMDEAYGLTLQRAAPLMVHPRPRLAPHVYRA
Experiment: HPLC product formation with recombinant yeast microsomes
Format: biochemical
Settings: 1.0 mM NADPH, 100 mM sodium phosphate pH 7.0, 30 °C, 30 min
Description: HPLC product formation with recombinant yeast microsomes on CsF3′H

Km (read-out: Kaempferol): 68.06 ± 0.43 µM
SMILES: O=c1c(O)c(-c2ccc(O)cc2)oc2cc(O)cc(O)c12 [Kaempferol]

Km (racemic substrate, read-out: Dihydrokaempferol): 143.6 ± 0.69 µM
SMILES: O=C1c2c(O)cc(O)cc2OC(c2ccc(O)cc2)C1O (racemic) [Dihydrokaempferol]

Km (racemic substrate, read-out: Naringenin): 17.1 ± 0.46 µM
SMILES: O=C1CC(c2ccc(O)cc2)Oc2cc(O)cc(O)c21 (racemic) [Naringenin]
